Target: human recombinant DHODH (rhDHODH) (Homo sapiens, UniProt Q02127)
Test: Inhibition of the activity of rh DHODH on its colorimetric substrate (OD at 600 nm)
Assay type: biochemical
Description: This mother tincture constitutes the sample to be tested. The measurement of the inhibition of the action of DHODH on its substrate is carried out in a conventional multi-well plate with a transparent wall. The wells contain the samples to be tested, the DHODH and its substrate.
To evaluate the inhibition of the DHODH by the sample, the parameter of the optical density called “OD” is used. Indeed, in each well, the “OD” is measured at a wavelength of 600 nm, at several time intervals, for a duration of 5 min.
More specifically, each well comprises the diluted or non-diluted sample, the enzyme of the DHODH and its colorimetric substrate diluted in a test buffer. Said colorimetric substrate comprises DHO which can be converted into ORO by action of the DHODH.
Over time, the consumption of the colorimetric substrate DHO by the enzyme DHODH results in a reduction in the OD. This decrease indicates the conversion of the colored DHO into uncolored ORO by the activity of the DHODH. In other words, the DHO is consumed, […] to ORO by the activity of the DHODH, which causes a modification of the OD measured.
In the event of inhibition of the activity of the DHODH by the sample, the OD remains stable over time. Indeed, in the case of inhibition, the colorimetric DHO substrate will not be transformed by the DHODH into ORO, the OD therefore will remain that of the initial DHO.
To carry out the experiments, the following were used: • a solution of class 1 enzyme called “rhDHODH” for “human recombinant DHODH”, • a test buffer consisting of 50 mM Tris, 150 mM KCl and 0.1% Triton® X-100, at pH 8, • a substrate mixture of DHODH containing: 2 mM of L-dihydroorotic called “DHO”, 0.2 mM of decylubiquinone called “Q” and 0.12 mM of 2,6-Dichloroindophenol sodium salt hydrate called “DP IP” in the test buffer, • a mother tincture sample of a leaf extract of a Neurolaena lobata plant, diluted or not, in a dilution buffer consisting of dimethyl sulfoxide called “DMSO”.
To start the protocol, each dilution of the sample H1 or H2 was placed in the presence of the rh DHODH enzyme and the mixture of substrate within a well. In order to obtain an average of OD measured for a sample concentration H1 or H2, triplicates were carried out for each of the dilution concentrations of H1 and H2.
The amount of enzyme added in each well is the same. In the protocol, the enzyme is added to the well so as to have a concentration of 0.06 μg of rh DHODH enzyme/mL of total solution in the well.
% of activity=(ΔH1×100)/Δ of the negative control.
The % of inhibition is calculated by the following formula: 100—the value of the % of activity.

Chain of human recombinant DHODH (rhDHODH) (Q02127 whole entry): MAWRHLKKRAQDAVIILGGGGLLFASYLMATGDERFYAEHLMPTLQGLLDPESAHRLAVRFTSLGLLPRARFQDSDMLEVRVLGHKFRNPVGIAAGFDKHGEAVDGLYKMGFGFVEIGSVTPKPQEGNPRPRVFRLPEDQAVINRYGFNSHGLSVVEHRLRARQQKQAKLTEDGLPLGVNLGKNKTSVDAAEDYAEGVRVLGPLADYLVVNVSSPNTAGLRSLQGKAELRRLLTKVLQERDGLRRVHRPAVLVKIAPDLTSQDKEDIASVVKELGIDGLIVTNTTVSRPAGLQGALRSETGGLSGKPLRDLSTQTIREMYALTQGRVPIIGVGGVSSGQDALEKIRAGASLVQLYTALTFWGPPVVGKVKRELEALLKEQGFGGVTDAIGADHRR

## Cc1c(-c2ccc(-c3ccccc3F)cc2)nc2ccc(F)cc2c1C(=O)O [brequinar]
  activity at 0.001 µg/mL: 6.25%
  activity at 0.01 µg/mL: 7.21%
  activity at 0.1 µg/mL: 0%
  activity at 1 µg/mL: 0%
0.001 μg/mL
  Δ (OD at 0 s minus OD at 275 s): 0.013
0.001 μg/mL, 0-275 s
  inhibition at 0.001 µg/mL: 93.8%
0.001 μg/mL, 0 s
  OD at 600 nm: 0.339
0.001 μg/mL, 55 s
  OD at 600 nm: 0.340
0.001 μg/mL, 110 s
  OD at 600 nm: 0.333
0.001 μg/mL, 165 s
  OD at 600 nm: 0.331
0.001 μg/mL, 220 s
  OD at 600 nm: 0.328
0.001 μg/mL, 275 s
  OD at 600 nm: 0.326
0.01 μg/mL
  Δ (OD at 0 s minus OD at 275 s): 0.015
0.01 μg/mL, 0-275 s
  inhibition at 0.01 µg/mL: 92.8%
0.01 μg/mL, 0 s
  OD at 600 nm: 0.344
0.01 μg/mL, 55 s
  OD at 600 nm: 0.345
0.01 μg/mL, 110 s
  OD at 600 nm: 0.339
0.01 μg/mL, 165 s
  OD at 600 nm: 0.336
0.01 μg/mL, 220 s
  OD at 600 nm: 0.348
0.01 μg/mL, 275 s
  OD at 600 nm: 0.329
0.1 μg/mL
  Δ (OD at 0 s minus OD at 275 s): 0.000
0.1 μg/mL, 0-275 s
  inhibition at 0.1 µg/mL: 100%
0.1 μg/mL, 0 s
  OD at 600 nm: 0.349
0.1 μg/mL, 55 s
  OD at 600 nm: 0.348
0.1 μg/mL, 110 s
  OD at 600 nm: 0.353
0.1 μg/mL, 165 s
  OD at 600 nm: 0.345
0.1 μg/mL, 220 s
  OD at 600 nm: 0.350
0.1 μg/mL, 275 s
  OD at 600 nm: 0.349
1 μg/mL
  Δ (OD at 0 s minus OD at 275 s): 0.001
1 μg/mL, 0-275 s
  inhibition at 1 µg/mL: 100%
1 μg/mL, 0 s
  OD at 600 nm: 0.354
1 μg/mL, 55 s
  OD at 600 nm: 0.354
1 μg/mL, 110 s
  OD at 600 nm: 0.352
1 μg/mL, 165 s
  OD at 600 nm: 0.361
1 μg/mL, 220 s
  OD at 600 nm: 0.357
1 μg/mL, 275 s
  OD at 600 nm: 0.353

Reference: patent publication US20240123012A1 (priority 2021, published 2024)
